{
  "source": "paper PMC7252906",
  "about": "(Toxicology and applied pharmacology, 2019)",
  "key": {"[1]": {"assay": "Radiochemical HPLC profiling of urine after [^14C]DMAE", "settings": "Oral"}, "[2]": {"assay": "Radiochemical HPLC profiling of urine after [^14C]DMAE", "type": "in vivo, Harlan Sprague Dawley rats"}, "[3]": {"assay": "Formation of N,N-dimethylnitrosamine after oral DMAE", "type": "in vivo", "settings": "rats, oral DMAE 10 to 500 mg/kg; limit of quantitation 5 pg/mL"}, "[4]": {"settings": "for residual radioactivity remaining in tissues (excluding GI tract): male and female rats"}, "[5]": {"settings": "female mice, gavage 160 mg/kg, 24 h"}, "[6]": {"tested_on": "rodents", "settings": "ref NTP 2002; cited from earlier work"}, "[7]": {"settings": "female rats, IV 16 mg/kg, 24 h, DMAE dose 0"}, "[8]": {"settings": "female rats, IV 16 mg/kg, 24 h, DMAE dose 0, listed as [^14C]choline, 16 mg/kg"}, "[9]": {"settings": "female rats, gavage 160 mg/kg, 24 h, DMAE dose 0"}, "[10]": {"settings": "female rats, gavage 160 mg/kg, 24 h, DMAE dose 0, listed as [^14C]choline, 160 mg/kg"}, "[11]": {"settings": "female rats, gavage 160 mg/kg, 24 h, DMAE pre-treatment 100 mg/kg"}, "[12]": {"settings": "female rats, gavage 160 mg/kg, 24 h, DMAE pre-treatment 500 mg/kg"}, "[13]": {"settings": "male rats, IV 16 mg/kg, 24 h, DMAE dose 0"}, "[14]": {"settings": "male rats, gavage 160 mg/kg, 24 h, DMAE dose 0"}, "[15]": {"settings": "male rats, gavage 160 mg/kg, 24 h, DMAE pre-treatment 100 mg/kg, 1 h prior"}, "[16]": {"settings": "male rats, gavage 160 mg/kg, 24 h, DMAE pre-treatment 500 mg/kg, 1 h prior"}, "[17]": {"settings": "male rats, gavage 160 mg/kg, 24 h, three DMAE pre-treatments 100 mg/kg 48, 24 and 1 h prior"}, "[18]": {"settings": "DMAE dose 0, listed as [^14C]choline, 160 mg/kg"}, "[19]": {"settings": "DMAE pre-treatment 500 mg/kg, 1 h prior"}},
  "note": "Several values for one entry are separate records, joined by “and”; a condition that tells them apart may be missing. Equal entries are not always repeated. Where two headings read alike, the source gives them in different places.",
  "data": [
    {"molecule": "C[N+](C)([O-])CCO", "note": "[DMAE Oxide]", "values": [
      {"measurement": "Estimated percentage of area of DMAE Oxide peak in urine chromatogram", "setting": "[1]; Mouse/Female, [^14C]DMAE 10 mg/kg", "result": 92, "unit": "%"},
      {"measurement": "Estimated percentage of area of DMAE Oxide peak in urine chromatogram", "setting": "[1]; Mouse/Female, [^14C]DMAE 100 mg/kg", "result": 18, "unit": "%"},
      {"measurement": "Estimated percentage of area of DMAE Oxide peak in urine chromatogram", "setting": "[1]; Mouse/Female, [^14C]DMAE 500 mg/kg", "result": 34, "unit": "%"},
      {"measurement": "Estimated percentage of area of DMAE Oxide peak in urine chromatogram", "setting": "[1]; Mouse/Male, [^14C]DMAE 500 mg/kg", "result": 0, "unit": "%"},
      {"measurement": "Estimated percentage of area of DMAE Oxide peak in urine chromatogram", "setting": "[1]; Mouse/Male, [^14C]DMAE 500 mg/kg, listed as DMAE oxide", "result": "absent"},
      {"measurement": "Estimated percentage of area of DMAE Oxide peak in urine chromatogram", "setting": "[2]; Rat/Female, [^14C]DMAE 500 mg/kg, Oral", "result": 45, "unit": "%"},
      {"measurement": "Estimated percentage of area of DMAE Oxide peak in urine chromatogram", "setting": "[2]; Rat/Male, [^14C]DMAE 10 mg/kg, IV", "result": 97, "unit": "%"},
      {"measurement": "Estimated percentage of area of DMAE Oxide peak in urine chromatogram", "setting": "[2]; Rat/Male, [^14C]DMAE 10 mg/kg, Oral", "result": 5, "unit": "%"},
      {"measurement": "Estimated percentage of area of DMAE Oxide peak in urine chromatogram", "setting": "[2]; Rat/Male, [^14C]DMAE 100 mg/kg, Oral", "result": 44, "unit": "%"},
      {"measurement": "Estimated percentage of area of DMAE Oxide peak in urine chromatogram", "setting": "[2]; Rat/Male, [^14C]DMAE 500 mg/kg, Oral", "result": 66, "unit": "%"}
    ]},
    {"molecule": "CN(C)N=O", "note": "[N,N-dimethylnitrosamine]", "values": [
      {"measurement": "N,N-dimethylnitrosamine detection", "setting": "[3]", "result": "not detected"}
    ]},
    {"molecule": "C[N+](C)(C)CCO", "note": "[choline, N,N,N-trimethylaminoethanol]", "values": [
      {"measurement": "% Dose Recovered, CO2", "setting": "[4]; [7]", "result": "28.1 ± 2.90", "unit": "% dose"},
      {"measurement": "% Dose Recovered, Tissues and GI Tract (includes contents)", "setting": "[4]; [7]", "result": "54.0 ± 5.50", "unit": "% dose"},
      {"measurement": "% Dose Recovered, VOCs", "setting": "[4]; [7]", "result": "0.284 ± 0.038", "unit": "% dose"},
      {"measurement": "% Dose Recovered, Total Recovered", "setting": "[4]; [8]", "result": "90.1 ± 6.10", "unit": "% dose"},
      {"measurement": "% Dose Recovered, Urine", "setting": "[4]; [8]", "result": "7 % dose and 7.45 ± 2.58 % dose"},
      {"measurement": "% Dose Recovered, Tissues and GI Tract (includes contents)", "setting": "[4]; [9]", "result": "26.1 ± 3.80", "unit": "% dose"},
      {"measurement": "% Dose Recovered, Total Recovered", "setting": "[4]; [9]", "result": "91.3 ± 9.60", "unit": "% dose"},
      {"measurement": "% Dose Recovered, VOCs", "setting": "[4]; [9]", "result": "0.325 ± 0.025", "unit": "% dose"},
      {"measurement": "% Dose Recovered, CO2", "setting": "[4]; [10]", "result": "18 % dose and 17.8 ± 1.70 % dose"},
      {"measurement": "% Dose Recovered, Urine", "setting": "[4]; [10]", "result": "34 % dose and 34.2 ± 7.90 % dose"},
      {"measurement": "% Dose Recovered, Tissues and GI Tract (includes contents)", "setting": "[4]; [11]", "result": "24.7 ± 2.70", "unit": "% dose"},
      {"measurement": "% Dose Recovered, Total Recovered", "setting": "[4]; [11]", "result": "92.9 ± 4.80", "unit": "% dose"},
      {"measurement": "% Dose Recovered, VOCs", "setting": "[4]; [11]", "result": "0.268 ± 0.026", "unit": "% dose"},
      {"measurement": "dose recovered in tissues (excluding GI tract)", "setting": "[4]; [11]", "result": 21, "unit": "%"},
      {"measurement": "% Dose Recovered, CO2", "setting": "[4]; [12]", "result": "22.4 ± 3.60", "unit": "% dose"},
      {"measurement": "% Dose Recovered, Tissues and GI Tract (includes contents)", "setting": "[4]; [12]", "result": "25.9 ± 4.70", "unit": "% dose"},
      {"measurement": "% Dose Recovered, Total Recovered", "setting": "[4]; [12]", "result": "94.1 ± 4.80", "unit": "% dose"},
      {"measurement": "% Dose Recovered, Urine", "setting": "[4]; [12]", "result": "43.3 ± 5.60", "unit": "% dose"},
      {"measurement": "% Dose Recovered, VOCs", "setting": "[4]; [12]", "result": "0.227 ± 0.057", "unit": "% dose"},
      {"measurement": "recovery in tissues other than the GI tract", "setting": "[4]; female rats, gavage 160 mg/kg, 24 h, [^14C]choline alone", "result": "~ 21%"},
      {"measurement": "total dose recovered", "setting": "[4]; female rats, gavage 160 mg/kg, range over groups", "result": "91–94%"},
      {"measurement": "residual radioactivity remaining in tissues (excluding GI tract)", "setting": "[4]; IV 16 mg/kg, 24 h", "result": "48–49%"},
      {"measurement": "residual radioactivity remaining in tissues (excluding GI tract)", "setting": "[4]; oral gavage, 24 h", "result": "17–21%"},
      {"measurement": "% Dose Recovered, CO2", "setting": "[4]; [13]", "result": "17.4 ± 2.40", "unit": "% dose"},
      {"measurement": "% Dose Recovered, Tissues and GI Tract (includes contents)", "setting": "[4]; [13]", "result": "56.2 ± 9.90", "unit": "% dose"},
      {"measurement": "% Dose Recovered, VOCs", "setting": "[4]; [13]", "result": "0.139 ± 0.035", "unit": "% dose"},
      {"measurement": "% Dose Recovered, Urine", "setting": "[4]; male rats, IV 16 mg/kg, 24 h, DMAE dose 0, listed as [^14C]choline, 16 mg/kg", "result": "4 % dose and 3.92 ± 0.850 % dose"},
      {"measurement": "% Dose Recovered, Tissues and GI Tract (includes contents)", "setting": "[4]; [14]", "result": "21.4 ± 2.80", "unit": "% dose"},
      {"measurement": "% Dose Recovered, Total Recovered", "setting": "[4]; [14]", "result": "88.2 ± 5.50", "unit": "% dose"},
      {"measurement": "% Dose Recovered, CO2", "setting": "[4]; male rats, gavage 160 mg/kg, 24 h, DMAE dose 0, listed as [^14C]choline, 160 mg/kg", "result": "12.5 ± 2.20", "unit": "% dose"},
      {"measurement": "% Dose Recovered, CO2", "setting": "[4]; [15]", "result": "12.4 ± 1.70", "unit": "% dose"},
      {"measurement": "% Dose Recovered, Tissues and GI Tract (includes contents)", "setting": "[4]; [15]", "result": "20.4 ± 5.60", "unit": "% dose"},
      {"measurement": "% Dose Recovered, Urine", "setting": "[4]; [15]", "result": "31.9 ± 4.60", "unit": "% dose"},
      {"measurement": "% Dose Recovered, VOCs", "setting": "[4]; [15]", "result": "0.018 ± 0.003", "unit": "% dose"},
      {"measurement": "% Dose Recovered, CO2", "setting": "[4]; [16]", "result": "15.1 ± 4.00", "unit": "% dose"},
      {"measurement": "% Dose Recovered, Tissues and GI Tract (includes contents)", "setting": "[4]; [16]", "result": "20.0 ± 3.80", "unit": "% dose"},
      {"measurement": "% Dose Recovered, Urine", "setting": "[4]; [16]", "result": "40.7 ± 6.30", "unit": "% dose"},
      {"measurement": "% Dose Recovered, VOCs", "setting": "[4]; [16]", "result": "0.065 ± 0.002", "unit": "% dose"},
      {"measurement": "dose recovered in tissues (excluding GI tract)", "setting": "[4]; male rats, gavage 160 mg/kg, 24 h, [^14C]choline alone", "result": "~ 18%"},
      {"measurement": "dose recovered in feces", "setting": "[4]; male rats, gavage 160 mg/kg, 24 h, pre-treatment with multiple doses of 100 mg/kg or a single dose of 500 mg/kg DMAE", "result": "10–12%"},
      {"measurement": "% Dose Recovered, CO2", "setting": "[4]; [17]", "result": "17.0 ± 1.70", "unit": "% dose"},
      {"measurement": "% Dose Recovered, Tissues and GI Tract (includes contents)", "setting": "[4]; [17]", "result": "26.6 ± 5.30", "unit": "% dose"},
      {"measurement": "% Dose Recovered, Total Recovered", "setting": "[4]; [17]", "result": "93.7 ± 2.70", "unit": "% dose"},
      {"measurement": "% Dose Recovered, Urine", "setting": "[4]; [17]", "result": "39.9 ± 3.80", "unit": "% dose"},
      {"measurement": "% Dose Recovered, VOCs", "setting": "[4]; [17]", "result": "below the limit of detection"},
      {"measurement": "% Dose Recovered, Tissues and GI Tract (includes contents)", "setting": "[5]; DMAE dose 0", "result": "18.2 ± 2.90", "unit": "% dose"},
      {"measurement": "% Dose Recovered, CO2", "setting": "[5]; [18]", "result": "25 % dose and 24.5 ± 5.40 % dose"},
      {"measurement": "% Dose Recovered, Urine", "setting": "[5]; [18]", "result": "32 % dose and 31.8 ± 11.1 % dose"},
      {"measurement": "% Dose Recovered, VOCs", "setting": "[5]; [18]", "result": "4 % dose and 3.61 ± 3.75 % dose"},
      {"measurement": "% Dose Recovered, CO2", "setting": "[5]; [19]", "result": "26.4 ± 8.60", "unit": "% dose"},
      {"measurement": "% Dose Recovered, Tissues and GI Tract (includes contents)", "setting": "[5]; [19]", "result": "18.4 ± 9.80", "unit": "% dose"},
      {"measurement": "% Dose Recovered, VOCs", "setting": "[5]; [19]", "result": "2.41 ± 1.77", "unit": "% dose"},
      {"measurement": "% Dose Recovered, Urine", "setting": "[5]; DMAE pre-treatment 500 mg/kg, 1 h prior, listed as [^14C]choline", "result": "32 % dose and 32.4 ± 7.20 % dose"},
      {"measurement": "recovery in tissues (excluding GI tract)", "setting": "[5]; [^14C]choline alone", "result": 15, "unit": "%"},
      {"measurement": "oral LD50", "setting": "[6]", "result": "3400 to 3900", "unit": "mg/kg"}
    ]}
  ]
}
